Experimental data published in publication PMC7179907, “Novel AXL-specific inhibitor ameliorates kidney dysfunction through the inhibition of epithelial-to-mesenchymal transition of renal tubular cells” (PLoS ONE, 2020).
pIC50: −log10 of the molar value.

How the values were obtained:
AXL = molecular target: T1, AXL (Homo sapiens, UniProt P30530); test: Protein kinase assay, AXL; assay type: biochemical; details: recombinant AXL, 1.5 hours treatment, n = 2; read-out: IC50 against AXL kinase activity
T1 construct: purchased Carna Biosciences (Kobe, Japan)
T1 sequence (P30530 26-894): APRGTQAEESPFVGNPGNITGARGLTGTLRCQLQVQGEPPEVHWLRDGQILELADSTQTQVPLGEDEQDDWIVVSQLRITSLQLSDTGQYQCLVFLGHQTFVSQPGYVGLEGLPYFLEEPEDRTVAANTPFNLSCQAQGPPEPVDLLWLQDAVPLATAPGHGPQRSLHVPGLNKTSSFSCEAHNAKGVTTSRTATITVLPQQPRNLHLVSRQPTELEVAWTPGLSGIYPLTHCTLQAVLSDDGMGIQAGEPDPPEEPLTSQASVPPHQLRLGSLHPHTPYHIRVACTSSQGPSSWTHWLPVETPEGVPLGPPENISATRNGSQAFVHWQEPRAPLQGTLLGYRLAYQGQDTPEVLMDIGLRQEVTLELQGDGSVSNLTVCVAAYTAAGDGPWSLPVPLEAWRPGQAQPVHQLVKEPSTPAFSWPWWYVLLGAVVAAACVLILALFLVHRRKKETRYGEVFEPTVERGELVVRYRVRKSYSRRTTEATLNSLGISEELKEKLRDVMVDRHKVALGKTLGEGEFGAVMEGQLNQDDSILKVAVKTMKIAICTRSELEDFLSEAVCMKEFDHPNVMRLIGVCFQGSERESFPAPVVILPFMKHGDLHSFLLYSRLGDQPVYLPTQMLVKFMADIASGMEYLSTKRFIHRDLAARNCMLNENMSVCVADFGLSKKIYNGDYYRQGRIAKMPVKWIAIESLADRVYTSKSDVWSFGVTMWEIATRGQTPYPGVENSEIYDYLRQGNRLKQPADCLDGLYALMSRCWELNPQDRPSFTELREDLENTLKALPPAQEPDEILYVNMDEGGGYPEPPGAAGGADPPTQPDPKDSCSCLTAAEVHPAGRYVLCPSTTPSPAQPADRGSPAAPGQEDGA
Description: (§1) CH5451098 (N-cyclopropyl-2-[2-[8-[(2R)-2,3-dihydroxypropoxy]-6,6-dimethyl-11-oxo-naphtho[2,3-b]benzofuran-3-yl]ethynyl]pyridine-4-carboxamide), a selective inhibitor of AXL, was synthesized at Chugai Pharmaceutical Co. Ltd. (Fig 1). The following recombinant proteins were used for the kinase assay: AXL, Mer, Tyro3, Flt3, JAK2, EGFR, HER2, KIT, PDGFRβ, FGFR2, KDR, MET, ALK, EPHA2, EPHB2, FAK, SRC, ABL, ERK1, PKA, AKT1, PKACα, PKACβ1, AurA, CHK1, CHK2, MNK1, CDK1, and p38α from Carna Biosciences (Kobe, Japan), and Raf1 from Thermo Fisher Scientific (Waltham, MA). Recombinant mouse TGFβ1 (mTGFβ1) and recombinant mouse Gas6 (mGas6) were purchased from R&D systems. All other chemicals were of the highest purity available. The following primary antibodies were used for this study: anti-beta catenin (8480), anti-zinc finger E-box-binding homeobox 1 (Zeb1) (3396), anti-glyceraldehyde-3-phosphate dehydrogenase (GAPDH) (8884) antibody from Cell Signaling Technology (Danvers, MA). […]
(§2) Protein kinases were purchased from Carna Biosciences or Millipore. The inhibitory activity against each kinase was evaluated as described previously.
(§3) Fig 2 In vitro kinase inhibitory activity of CH5451098. […] Enzyme inhibitory activity was calculated by the formula (1-T/C) x 100 (%), where T represents the measured value of the wells with a compound and C represents that of wells without a compound (n = 2). […]

[1] = tested on: 30 kinases including the TAM family (Tyro3, AXL and, Mer) of receptor tyrosine kinases; test: 30 kinase inhibitory assays (selectivity); assay type: biochemical; details: Fig 2B
Description: as §1, §2, §3

NEP25 mice = test: NEP25 mouse model of glomerular nephritis (LMB2-induced); assay type: in vivo
Description: NEP25 mice, heterozygous podocyte-specific hCD25 transgenic mice, were bred in Tokai University and kindly provided by Matsusaka et al.. All mice were kept in well-controlled animal housing with free access to water and pellet food. Animal procedures and protocols were in accordance with the Guidelines for the Care and Use of Laboratory Animals at Chugai Pharmaceutical Co. Ltd. and approved by the Institutional Animal Care and Use Committee.
To induce disease, NEP25 mice were injected with 0.8 μg/kg of the immunotoxin LMB2 (provided from National Institutes of Health, USA) via the tail vein, except in the normal control group (n = 4). CH5451098 powder was suspended in a 0.5% carboxymethyl cellulose solution to prepare 1.0 mg/mL. Mice were divided into 2 groups and were orally administered vehicle (disease group, n = 10) or CH5451098 10 mg/kg once daily for 21 days (CH5451098 group, n = 10) from one day before LMB2 injection. The dose of CH5451098 was set high enough to inhibit AXL kinase activity throughout the day. Mice not treated with LMB2 were used as normal control.
Blood and urine samples were collected on day 7, 14, or, 21 after LMB2 injection. Blood samples were collected from the abdominal portion of the vena cava under isoflurane anesthesia and were centrifuged to obtain serum samples. Urine samples were collected for 24 hours using a metabolic cage. The mice were euthanized by exsanguination under isoflurane anesthesia at day 22 after LMB2 injection. Kidney tissues were dissected for pathology (formalin-fixed or methyl carnoy-fixed) and kidney cortex samples were collected and snap frozen in liquid nitrogen.
Serum urea nitrogen (BUN), creatinine (sCre) and urinary albumin (uAlb), N-Acetyl-beta-D Glucosaminidase (NAG), and creatinine were measured using an automatic analyzer (Hitachi 7100 Autoanlayzer, Hitachi Co., Ltd. Tokyo, Japan).
RNA samples were extracted from frozen mouse kidney cortex or NRK-52E cells using an RNaesy Mini kit (QIAGEN, Hilden, Germany). cDNA were synthesized from RNA using a reverse transcription kit (Roche applied science, Penzberg, Germany). Expression levels were measured by a LightCycler 480 (Roche Applied science) using TaqMan probe/primer sets for each gene (Thermo Fisher Scientific). […]

NRK-52E cells = test: EMT induced by TGFβ1 and Gas6 in NRK-52E cells (mRNA expression); assay type: cell-based, rat; details: CH5451098 1 nmol/L; mTGFβ1 2 ng/mL and mGas6 500 ng/mL; 2 hours
Description: RNA samples were extracted from frozen mouse kidney cortex or NRK-52E cells using an RNaesy Mini kit (QIAGEN, Hilden, Germany). cDNA were synthesized from RNA using a reverse transcription kit (Roche applied science, Penzberg, Germany). Expression levels were measured by a LightCycler 480 (Roche Applied science) using TaqMan probe/primer sets for each gene (Thermo Fisher Scientific).
NRK-52E cell line derived from rat renal tubular epithelial cells was purchased from ATCC (Manassas, VA) and cultured in Dulbecco’s modified eagle’s medium with high glucose media supplemented with 5% FBS at 37°C under 5% CO 2 and 95% air.
NRK-52E cells were seeded onto a collagen-coated plate and were cultured over-night. After reaching subconfluence, cells were cultured in serum restricted medium (0.5% FBS) for 6 hours. Then the cells were stimulated with recombinant mTGFβ1 (2 ng/mL) and/or recombinant mGas6 (500 ng/mL) followed by treatment with or without CH5451098 (1 nmol/L) for 15 minutes. The cells were lysed with RLT buffer (Qiagen) after 2 hours incubation with stimulants and mRNA was purified using RNeasy mini kit (Qiagen).

[2] = 10 mg/kg once daily 21 days, kidney cortex, vs disease control
[3] = 10 mg/kg once daily 21 days, vs disease control
[4] = 10 mg/kg orally once daily 21 days, blood 24 hours after final administration, mean ± SE, p<0.01 vs disease control
[5] = kidney cortex, 3 weeks after disease induction, vs disease control

pIC50 (AXL): 8.42
SMILES: CC1(C)c2cc(OC[C@H](O)CO)ccc2C(=O)c2c1oc1cc(C#Cc3cc(C(=O)NC4CC4)ccn3)ccc21 [CH5451098, N-cyclopropyl-2-[2-[8-[(2R)-2,3-dihydroxypropoxy]-6,6-dimethyl-11-oxo-naphtho[2,3-b]benzofuran-3-yl]ethynyl]pyridine-4-carboxamide]
selectivity against other kinases [1]: strongest inhibitory activity towards AXL among 30 kinases
uAlb excretion (NEP25 mice; 10 mg/kg once daily 21 days, 3 weeks after disease induction, vs disease control): significantly decreased
Renal LCN2 mRNA (NEP25 mice; [2]): significantly decreased
kidney Col1a1 mRNA (NEP25 mice; [2]): significantly reduced
kidney OH-Pro content (NEP25 mice; [2]): suppressed
kidney Pai1 mRNA (NEP25 mice; [2]): significantly inhibited
kidney Snai1 mRNA (NEP25 mice; [2]): did not reduce
kidney TGFβ1 mRNA expression (NEP25 mice; [2]): only a partial reduction
kidney Twist1 mRNA (NEP25 mice; [2]): tended to suppress
kidney Zeb1 mRNA (NEP25 mice; [2]): suppressed
Urinary NAG excretion (NEP25 mice; 10 mg/kg once daily 21 days, urine 0 to 24 hours after final administration, vs disease control): significantly inhibited
abundance of stained connective tissue (Sirius red and Masson's Trichrome staining) (NEP25 mice; [3]): inhibited
destruction of glomerular structure (periodic acid-Schiff stain) (NEP25 mice; [3]): ameliorated
tubulointerstitial fibrosis (semi-quantitative score, Masson's trichrome) (NEP25 mice; [3]): significantly suppressed
BUN (NEP25 mice; [4]): 55 ± 5.0 mg/dL
Serum creatinine (sCre) (NEP25 mice; [4]): 0.15 ± 0.019 mg/dL
uAlb leakage (NEP25 mice; 2 weeks after disease induction, compared to DC group, data not shown): no effect
kidney Zeb1 protein level (western blotting) (NEP25 mice; [5]): reduced
kidney beta-catenin protein level (western blotting) (NEP25 mice; [5]): reduced
LCN2 mRNA induced by Gas6 and TGFβ1 (NRK-52E cells): inhibited
Snai1 mRNA induced by Gas6 along with TGFβ1 (NRK-52E cells): markedly inhibited
Twist1 mRNA induced by Gas6 along with TGFβ1 (NRK-52E cells): markedly inhibited
Zeb1 mRNA induced by Gas6 along with TGFβ1 (NRK-52E cells): markedly inhibited
enhancement of Pai1 mRNA (NRK-52E cells): suppressed
enhancement of TGFβ1 mRNA (NRK-52E cells): suppressed
